Experimental data taken from PubChem BioAssay AID330 (DTP/NCI, 2004).
Several values for one entry are separate records, joined by “and”; a condition that tells them apart may be missing. Identical values can stand only once. Toxic doses and inconclusive results are not listed.

Tested on: P388 leukemia ip, CD2F1 mice, survival T/C
Assay: NCI In Vivo Anticancer Drug Screen. Data for tumor model P388 Leukemia (intraperitoneal) in CD2F1 (CDF1) mice
Settings: endpoint: median survival time, higher = longer survival
In short: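 Mice carrying the transplanted tumor received test compound or vehicle. Survival was recorded in each group, and the value is the treated-group measurement divided by that of the vehicle-treated control group.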

[1] = dose: 60.0 mg/kg/injection, schedule: Q01DX005 (ip), vehicle: Klucel (hydroxypropylcellulose) (HPC)
[2] = dose: 120.0 mg/kg/injection, schedule: Q01DX005 (ip), vehicle: Klucel (hydroxypropylcellulose) (HPC)
[3] = dose: 240.0 mg/kg/injection, schedule: Q01DX005 (ip), vehicle: Klucel (hydroxypropylcellulose) (HPC)
[4] = dose: 50.0 mg/kg/injection, schedule: Q01DX005 (ip), vehicle: saline with Tween-80
[5] = dose: 100.0 mg/kg/injection, schedule: Q01DX005 (ip), vehicle: saline with Tween-80
[6] = dose: 200.0 mg/kg/injection, schedule: Q01DX005 (ip), vehicle: saline with Tween-80
[7] = dose: 50.0 mg/kg/injection, schedule: Q01DX009 (ip), vehicle: saline with Tween-80
[8] = dose: 100.0 mg/kg/injection, schedule: Q01DX009 (ip), vehicle: saline with Tween-80
[9] = dose: 25.0 mg/kg/injection, schedule: Q01DX009 (ip), vehicle: saline with Tween-80
[10] = dose: 25.0 mg/kg/injection, schedule: Q01DX009 (ip), vehicle: saline
[11] = dose: 50.0 mg/kg/injection, schedule: Q01DX009 (ip), vehicle: saline
[12] = dose: 100.0 mg/kg/injection, schedule: Q01DX009 (ip), vehicle: saline
[13] = dose: 100.0 mg/kg/injection, schedule: Q04DX003 (ip), vehicle: saline with Tween-80
[14] = dose: 200.0 mg/kg/injection, schedule: Q01DX009 (ip), vehicle: saline with Tween-80

Q: For `COC1CC(O)(CCNc2ccc([N+](=O)[O-])cc2[N+](=O)[O-])C(O)C(CO)O1` (configuration not stated), which T/C (dose: 20.0 mg/kg/injection, schedule: Q01DX001 (ip), vehicle: Klucel (hydroxypropylcellulose) (HPC)) is on record?
A: 100 % of control

Q: And the T/C (dose: 40.0 mg/kg/injection, schedule: Q01DX001 (ip), vehicle: Klucel (hydroxypropylcellulose) (HPC))?
A: 93 % of control

Q: And the T/C (dose: 80.0 mg/kg/injection, schedule: Q01DX001 (ip), vehicle: Klucel (hydroxypropylcellulose) (HPC))?
A: 94 % of control

Q: Which T/C [1] does the source give for `Oc1c(-c2ccccc2)nc2ccccn12` here?
A: 94 % of control

Q: And the T/C [2]?
A: 96 % of control

Q: What about the T/C [3] of the same molecule?
A: 107 % of control

Q: Which T/C (dose: 100.0 mg/kg/injection, schedule: Q04DX002 (ip), vehicle: Klucel (hydroxypropylcellulose) (HPC)) does the source give for `O=[N+]([O-])c1ccc(-c2nnn(C3CC3)c2N2CCCCC2)cc1` here?
A: 100 % of control

Q: And the T/C (dose: 200.0 mg/kg/injection, schedule: Q04DX002 (ip), vehicle: Klucel (hydroxypropylcellulose) (HPC))?
A: 96 % of control

Q: And the T/C (dose: 400.0 mg/kg/injection, schedule: Q04DX002 (ip), vehicle: Klucel (hydroxypropylcellulose) (HPC))?
A: 101 % of control

Q: For `COC1NC(=O)Oc2ccccc21` (configuration not stated), which T/C [4] is on record?
A: 109 % of control and 97 % of control

Q: What about the T/C [5] of the same molecule?
A: 108 % of control and 109 % of control

Q: What about the T/C [6] of the same molecule?
A: 114 % of control

Q: With `CCCCCCCCCCCC(=O)NCC(=O)NC1C(C)OC(Nc2ncnc3nc[nH]c23)C(O)C1O` (configuration not stated) as the molecule, how does the T/C (dose: 0.25 mg/kg/injection, schedule: Q01DX009 (ip), vehicle: other) read?
A: 113 % of control

Q: And the T/C (dose: 0.5 mg/kg/injection, schedule: Q01DX009 (ip), vehicle: other)?
A: 109 % of control

Q: How did the T/C (dose: 16.5 mg/kg/injection, schedule: Q01DX009 (ip), vehicle: saline with Tween-80) turn out when `Nc1ccc2cc(Cl)ccc2c1` was run?
A: 90 % of control

Q: Which results are given for `Cc1ccc(S(=O)(=O)NC(=O)OC23COCN2COC3)cc1`?
A: T/C [7]: 117 % of control; T/C [8]: 122 % of control

Q: `C[N+](C)(C)CCCCC[N+](C)(C)C` was tested. Which T/C (dose: 6.25 mg/kg/injection, schedule: Q01DX009 (ip), vehicle: saline) did it give?
A: 110 % of control

Q: And the T/C (dose: 12.5 mg/kg/injection, schedule: Q01DX009 (ip), vehicle: saline)?
A: 110 % of control

Q: What about the T/C [9] of the same molecule?
A: 100 % of control

Q: What about the T/C [10] of the same molecule?
A: 110 % of control

Q: And the T/C [7]?
A: 104 % of control

Q: What about the T/C [8] of the same molecule?
A: 100 % of control

Q: Which T/C [4] does the source give for `Cc1cc(Nc2ccc(O)cc2)nc(N)n1` here?
A: 105 % of control

Q: And the T/C [5]?
A: 99 % of control

Q: What about the T/C [6] of the same molecule?
A: 113 % of control

Q: What does the source list for `NC(=O)N/N=C1/C=CC2(CC=CCC2)CC1` (configuration not stated)?
A: T/C (dose: 100.0 mg/kg/injection, schedule: Q01DX001 (ip), vehicle: Klucel (hydroxypropylcellulose) (HPC)): 90 % of control; T/C (dose: 200.0 mg/kg/injection, schedule: Q01DX001 (ip), vehicle: Klucel (hydroxypropylcellulose) (HPC)): 104 % of control; T/C (dose: 400.0 mg/kg/injection, schedule: Q01DX001 (ip), vehicle: Klucel (hydroxypropylcellulose) (HPC)): 90 % of control

Q: How did the T/C [11] turn out when `CCN(CC)c1ccc([P+](=O)O)cc1` was run?
A: 108 % of control

Q: And the T/C [12]?
A: 100 % of control

Q: `CC(=O)[C@]1(O)Cc2c(O)c3c(c(O)c2[C@@H](OC2CC(N)C(O)C(C)O2)C1)C(=O)c1c(OCc2ccccc2)cccc1C3=O` (some centres not stated) was tested. Which T/C (dose: 12.5 mg/kg/injection, schedule: Q04DX003 (ip), vehicle: distilled water + Tween-80) did it give?
A: 101 % of control

Q: And the T/C (dose: 100.0 mg/kg/injection, schedule: Q04DX003 (ip), vehicle: distilled water + Tween-80)?
A: 91 % of control

Q: Which T/C [13] does the source give for `O=c1ccnc(Sc2ncccc2[N+](=O)[O-])[nH]1` here?
A: 100 % of control

Q: And the T/C (dose: 200.0 mg/kg/injection, schedule: Q04DX003 (ip), vehicle: saline with Tween-80)?
A: 100 % of control

Q: And the T/C (dose: 400.0 mg/kg/injection, schedule: Q04DX003 (ip), vehicle: saline with Tween-80)?
A: 100 % of control

Q: With `O=S(=O)(N/N=C/c1ccncc1)c1ccccc1` as the molecule, how does the T/C (dose: 12.5 mg/kg/injection, schedule: Q01DX009 (ip), vehicle: other) read?
A: 110 % of control and 121 % of control

Q: And the T/C (dose: 25.0 mg/kg/injection, schedule: Q01DX009 (ip), vehicle: other)?
A: 116 % of control

Q: And the T/C (dose: 100.0 mg/kg/injection, schedule: Q01DX009 (ip), vehicle: other)?
A: 157 % of control

Q: Which T/C [10] does the source give for `O=c1[nH][nH]c(=O)c2c1CCCC2` here?
A: 107 % of control

Q: What about the T/C [11] of the same molecule?
A: 95 % of control

Q: What about the T/C [12] of the same molecule?
A: 100 % of control

Q: And the T/C (dose: 200.0 mg/kg/injection, schedule: Q01DX009 (ip), vehicle: saline)?
A: 101 % of control

Q: What does the source list for `CCOC(=O)C[n+]1ccc2cc(OC)c(OC)cc2c1Cc1ccc(OC)c(OC)c1`?
A: T/C [7]: 102 % of control; T/C [8]: 90 % of control; T/C [14]: 90 % of control

Q: `COC(=O)C/C(=C\c1cn(C(C)=O)c2ccccc12)[N+](=O)[O-]` was tested. Which T/C (dose: 6.25 mg/kg/injection, schedule: Q01DX005 (ip), vehicle: Klucel (hydroxypropylcellulose) (HPC)) did it give?
A: 89 % of control

Q: What about the T/C (dose: 12.5 mg/kg/injection, schedule: Q01DX005 (ip), vehicle: Klucel (hydroxypropylcellulose) (HPC)) of the same molecule?
A: 98 % of control

Q: What about the T/C (dose: 25.0 mg/kg/injection, schedule: Q01DX005 (ip), vehicle: Klucel (hydroxypropylcellulose) (HPC)) of the same molecule?
A: 91 % of control

Q: For `COc1cc(NS(C)(=O)=O)ccc1Nc1c2ccccc2nc2cc(C(F)(F)F)c(N)cc12`, which T/C (dose: 13.0 mg/kg/injection, schedule: Q04DX003 (ip), vehicle: distilled water + Tween-80) is on record?
A: 162 % of control

Q: What about the T/C (dose: 21.6 mg/kg/injection, schedule: Q04DX003 (ip), vehicle: distilled water + Tween-80) of the same molecule?
A: 180 % of control

Q: What about the T/C (dose: 25.0 mg/kg/injection, schedule: Q01DX009 (ip), vehicle: Klucel (hydroxypropylcellulose) (HPC)) of the same molecule?
A: 172 % of control

Q: And the T/C (dose: 36.0 mg/kg/injection, schedule: Q04DX003 (ip), vehicle: distilled water + Tween-80)?
A: 190 % of control

Q: What about the T/C (dose: 50.0 mg/kg/injection, schedule: Q01DX009 (ip), vehicle: Klucel (hydroxypropylcellulose) (HPC)) of the same molecule?
A: 152 % of control and 182 % of control

Q: What about the T/C (dose: 60.0 mg/kg/injection, schedule: Q04DX003 (ip), vehicle: distilled water + Tween-80) of the same molecule?
A: 228 % of control

Q: What about the T/C (dose: 100.0 mg/kg/injection, schedule: Q01DX009 (ip), vehicle: Klucel (hydroxypropylcellulose) (HPC)) of the same molecule?
A: 123 % of control

Q: `O=C(O)C(=O)O.[Mn]` was tested. Which T/C [13] did it give?
A: 86 % of control

Q: Which results are given for `C/C(=N\NC(N)=O)c1cccc(/C(C)=N/NC(N)=O)n1`?
A: T/C [9]: 116 % of control; T/C [7]: 109 % of control and 118 % of control

Q: With `O=C1C(Br)=C(c2ccccc2)S(=O)(=O)c2ccccc21` as the molecule, how does the T/C [1] read?
A: 109 % of control

Q: And the T/C [2]?
A: 114 % of control

Q: And the T/C [3]?
A: 114 % of control

Q: Which results are given for `COc1cc2c(c(OC)c1OC)-c1[nH]ncc1CC2`?
A: T/C (dose: 25.0 mg/kg/injection, schedule: Q04DX003 (ip), vehicle: Klucel (hydroxypropylcellulose) (HPC)): 100 % of control; T/C (dose: 50.0 mg/kg/injection, schedule: Q04DX003 (ip), vehicle: Klucel (hydroxypropylcellulose) (HPC)): 103 % of control; T/C (dose: 100.0 mg/kg/injection, schedule: Q04DX003 (ip), vehicle: Klucel (hydroxypropylcellulose) (HPC)): 93 % of control and 94 % of control; T/C (dose: 400.0 mg/kg/injection, schedule: Q04DX003 (ip), vehicle: Klucel (hydroxypropylcellulose) (HPC)): 93 % of control

Q: How did the T/C (dose: 2.5 mg/kg/injection, schedule: Q01DX009 (ip), vehicle: saline) turn out when `NC(=O)C12CCCCC1CCC(=O)C2` (configuration not stated) was run?
A: 100 % of control

Q: What about the T/C (dose: 5.0 mg/kg/injection, schedule: Q01DX009 (ip), vehicle: saline) of the same molecule?
A: 100 % of control

Q: What about the T/C (dose: 10.0 mg/kg/injection, schedule: Q01DX009 (ip), vehicle: saline) of the same molecule?
A: 100 % of control

Q: Which T/C (dose: 60.0 mg/kg/injection, schedule: Q01DX005 (ip), vehicle: saline with Tween-80) does the source give for `CC(=O)Nc1nnc(-c2coc3ccccc3c2=O)s1` here?
A: 91 % of control

Q: What about the T/C (dose: 120.0 mg/kg/injection, schedule: Q01DX005 (ip), vehicle: saline with Tween-80) of the same molecule?
A: 91 % of control

Q: What does the source list for `OC(Nc1ncccn1)C(F)(F)F` (configuration not stated)?
A: T/C [7]: 92 % of control; T/C [8]: 111 % of control; T/C [14]: 120 % of control

Q: Which T/C (dose: 12.5 mg/kg/injection, schedule: Q01DX005 (ip), vehicle: saline with Tween-80) does the source give for `CN(C)C(=S)n1c(=S)nc(N(C)C)sc1=S` here?
A: 103 % of control

Q: And the T/C (dose: 25.0 mg/kg/injection, schedule: Q01DX005 (ip), vehicle: saline with Tween-80)?
A: 108 % of control

Q: And the T/C [4]?
A: 108 % of control and 113 % of control

Q: What about the T/C [5] of the same molecule?
A: 109 % of control

Q: What does the source list for `C=C1C(=O)C23CC1CCC2C12COC(OC(=O)CCCCCCCCCCC)C1C(C)(C)C(O)CC2OC3=O` (configuration not stated)?
A: T/C (dose: 7.5 mg/kg/injection, schedule: Q01DX009 (ip), vehicle: saline with Tween-80): 103 % of control; T/C (dose: 15.0 mg/kg/injection, schedule: Q01DX009 (ip), vehicle: saline with Tween-80): 95 % of control; T/C (dose: 30.0 mg/kg/injection, schedule: Q01DX009 (ip), vehicle: saline with Tween-80): 103 % of control; T/C (dose: 60.0 mg/kg/injection, schedule: Q01DX009 (ip), vehicle: saline with Tween-80): 103 % of control
